Experimental data reported in PMC10313066, “In-vitro high-throughput library screening—Kinetics and molecular docking studies of potent inhibitors of α-glucosidase” (PLOS ONE, 2023).

Assays:
α-glucosidase [1] = molecular target: T1, α-glucosidase (Saccharomyces cerevisiae, UniProt P53341); assay: α-glucosidase inhibition assay (96-well, pNPG substrate, 405 nm); assay type: biochemical; settings: S3 Table; for OD of sample: absorbance at 405 nm; for inhibition at 500 µM (stock): test compound 20 μL of 0.5 mM, read-out: Percentage Inhibition
T1 sequence (P53341 whole entry): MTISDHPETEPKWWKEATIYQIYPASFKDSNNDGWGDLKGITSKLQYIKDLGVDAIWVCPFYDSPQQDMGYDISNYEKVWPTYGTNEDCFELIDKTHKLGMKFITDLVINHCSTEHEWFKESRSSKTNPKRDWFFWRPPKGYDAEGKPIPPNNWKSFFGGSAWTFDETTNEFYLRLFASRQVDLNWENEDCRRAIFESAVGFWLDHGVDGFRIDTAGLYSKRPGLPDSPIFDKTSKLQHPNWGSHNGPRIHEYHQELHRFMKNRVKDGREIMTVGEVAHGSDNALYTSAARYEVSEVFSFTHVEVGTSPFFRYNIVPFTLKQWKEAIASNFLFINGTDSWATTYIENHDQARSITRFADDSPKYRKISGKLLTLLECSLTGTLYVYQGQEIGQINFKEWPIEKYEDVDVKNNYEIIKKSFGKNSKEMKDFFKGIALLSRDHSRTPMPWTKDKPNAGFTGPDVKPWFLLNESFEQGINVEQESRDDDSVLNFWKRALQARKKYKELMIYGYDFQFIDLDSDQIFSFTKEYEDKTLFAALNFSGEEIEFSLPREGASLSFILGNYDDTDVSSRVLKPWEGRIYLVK
Method: The assay is based on the method given by Pistia-Brueggeman with slight modifications. In a 96-well plate 120 μL of sodium phosphate buffer (pH = 7) was taken and 20 μL of the enzyme (2U/mL) was added. Then 20 μL of test compound (0.5 mM) was added and then incubated for 15 min. at 37 °C. In sequence, substrate pNPG (20 μL, 1mM) was taken in each well, and dissolved in buffer. The reaction mixture was again incubated for 15 min. at 37 °C. The reaction was stopped by the addition of 20 μL of 0.1 mM Na2CO3, so that the final volume reaches 200 μL. The activity of the enzyme was measured spectrophotometrically at 405 nm by measuring the concentration of product formed, using SpectraMax M2 (Molecular Devices CA, USA). Each sample was taken in triplicate and the % inhibition was measured. […]

α-glucosidase [2] = molecular target: T1, α-glucosidase; assay: Kinetic studies, Line-weaver Burk plot (type of enzyme inhibition); assay type: biochemical; settings: Vmax and Km both change with inhibitor concentration
Method: The type of enzyme inhibition was determined by using the Line-weaver Burk plot. For this, out of 4 different concentrations of each sample, each concentration is analyzed against 4 different concentrations of substrate ranging from 1 mM to 0.125 mM. The inverse of maximum velocity (1/Vmax), obtained for each concentration, is plotted against the inverse of substrate concentrations (1/[S]) to find out type of enzyme inhibition.

carbonic anhydrase II = molecular target: carbonic anhydrase II; design: method as in earlier work; settings: cited from earlier work
urease = test system: urease; design: method as in earlier work; settings: cited from earlier work

Structure (SMILES)	OD of sample (α-glucosidase [1])	inhibition at 500 µM (stock) (α-glucosidase [1]) [%]	mode (type) of enzyme inhibition (α-glucosidase [2])	IC50 (carbonic anhydrase II) [µM]	IC50 (urease) [µM]
O=C1Oc2ccccc2C(=O)/C1=C/c1ccc(-c2ccccc2)cc1 [compound 54]	0.39	85.6			
COc1ccc(S(=O)(=O)N2CCC(c3nnc(SC(C)C(=O)Nc4ccc(C)cc4)n3-c3ccccc3)CC2)cc1 (stereo not drawn) [compound 185]	0.49	81.9			
CCCCCCCCCCCCSc1nc2ccccc2n1CC(=O)N/N=C/c1ccc(O)c(OCC)c1 [compound 96]	0.64	80.1			
CCSc1nc2ccccc2n1CC(=O)N/N=C/c1ccc(O)cc1O [compound 228, (E)-N’-(2,4-dihydroxybenzylidene)-2-(2-(ethylthio)-1H-benzo[d]imidazol-1-yl)acetohydrazide]	0.30	91.2	un-competitive		
Clc1ccc(-c2nnc(-c3ccc[nH]3)o2)c(Cl)c1 [compound 25, 2-(2,4-dichlorophenyl)-5-(1H-pyrrol-2-yl)-1,3,4-oxadiazole]	0.33	90	un-competitive		
O=[N+]([O-])c1ccc(N/N=C\c2ccc(O)cc2)c([N+](=O)[O-])c1 [compound 5]	0.62				
O=C(C1=C(c2ccccc2)NC(=S)NC1c1cccc(O)c1)c1ccccc1 (stereo not drawn) [(4-(3-hydroxyphenyl)-6-phenyl-2-thioxo-1,2,3,4-tetrahydropyrimidin-5-yl)phenyl)methanone]				98	
N=C(N)NCCC[C@@H](N)c1nnc(-c2cccs2)o1 [(R)-1-(4-amino-4-(5-(thiophen-2-yl)-1,3,4-oxadiazol-2-yl)butyl)guanidine]					47
